Experimental data from US6525001B1, “Substituted pyrimidine and pyridine herbicides” (Mid-American Commercialization Corporation, priority 1997, dated 2003).

Tests used:
Assay type in all cases: in vivo
[1] = test system: Spanishneedles (Bidens bipinnata); test: Test E pre-/postemergence/post directed
Excerpt: (§1) Seeds, tubers, or plant parts of alexandergrass (Brachiaria plantaginea), annual bluegrass (Poa annua), arrowleaf sida (Sida rhombifolia), barnyardgrass (Echinochloa crus-galli), bermudagrass (Cynodon dactylon), citrus (Citrus sinensis), common chickweed (Stellaria media), common purslane (Portulaca oleracea), common ragweed (Ambrosia elatior), common groundsel (Senecio vulgaris), dallisgrass (Paspalum dilatatum), goosegrass (Eleusine indica), green foxtail (Setaria viridis), guineagrass (Panicum maximum), itchgrass (Rottboellia exaltata), johnson grass (Sorghum halepense), kochia (Kochia scoparia), large crabgrass (Digitaria sanguinalis), leafy spurge (Euphorbia esula), pitted morningglory (Ipomoea lacunosa), purple nutsedge (Cyperus rotundus), quackgrass (Agropyron repens), Russian thistle (Salsola kali), sandbur (Cenchrus echinatus), sourgrass (Trichachne insularis), Spanishneedles (Bidens bipinnata), sugarcane (Saccharum officinarum), surinam grass (Brachiaria decumbens) and tall mallow (Malva sylvestris) were planted into greenhouse pots of flats containing greenhouse planting medium. Plant species were grown grown in separate pots or individual compartments. Preemergence applications were made within one day of planting the seed or plant part. Postemergence applications were applied when the plants were in the two to four leaf stage (three to twenty cm).
(§2) Test chemicals were formulated in a non-phytotoxic solvent mixture which included a surfactant and applied preemergence to the soil surface, postemergence to the plants or as a post directed spray to plants and soil at the base of the target species. Untreated control plants and treated plants were placed in the greenhouse and visually evaluated for injury 13 to 21 days after herbicide application. Plant response ratings, summarized in Table E, are based on a 0 to 100 scale where 0 is no injury and 100 is complete control. A dash (−) response means no test result.

[2] = test system: bermudagrass (Cynodon dactylon); test: Test E pre-/postemergence/post directed
Excerpt: as §1, §2

[3] = test system: common ragweed (Ambrosia elatior); test: Test E pre-/postemergence/post directed
Excerpt: as §1, §2

[4] = test system: itchgrass (Rottboellia exaltata); test: Test E pre-/postemergence/post directed
Excerpt: as §1, §2

[5] = test system: large crabgrass (Digitaria sanguinalis); test: Test E pre-/postemergence/post directed
Excerpt: as §1, §2

[6] = test system: sandbur (Cenchrus echinatus); test: Test E pre-/postemergence/post directed
Excerpt: as §1, §2

[7] = test system: common ragweed (Ambrosia elatior); test: Test E pre-/postemergence/post directed; design: key: 0 is no effect; 100 is complete control; settings: PREEMERGENCE
Procedure, shortened: (§3)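 Three application modes in greenhouse pots: preemergence soil spray, postemergence foliar spray at two to four leaves, and post-directed spray to soil and plant base. Ratings of 0–100 injury, assigned visually against untreated controls 13 to 21 days later.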

[8] = test system: dallisgrass (Paspalum dilatatum); test: Test E pre-/postemergence/post directed; design: key: 0 is no effect; 100 is complete control
Procedure, shortened: as §3

[9] = test system: goosegrass (Eleusine indica); test: Test E pre-/postemergence/post directed; design: key: 0 is no effect; 100 is complete control
Procedure, shortened: as §3

[10] = test system: guineagrass (Panicum maximum); test: Test E pre-/postemergence/post directed; design: key: 0 is no effect; 100 is complete control
Procedure, shortened: as §3

[11] = test system: arrowleaf sida (Sida rhombifolia); test: Test C; design: key: 0 was no effect; 100 was complete control; settings: PREEMERGENCE
[12] = test system: barnyardgrass (Echinochloa crus-galli); test: Test C; settings: PREEMERGENCE
[13] = test system: cocklebur (Xanthium strumarium); test: Test C; design: key: 0 was no effect; 100 was complete control; settings: PREEMERGENCE
[14] = test system: common ragweed (Ambrosia elatior); test: Test C; design: key: 0 was no effect; 100 was complete control; settings: PREEMERGENCE
[15] = test system: fall panicum (Panicum dichotomiflorum); test: Test C; design: key: 0 was no effect; 100 was complete control; settings: PREEMERGENCE
[16] = test system: giant foxtail (Setaria faberii); test: Test C; design: key: 0 was no effect; 100 was complete control; settings: PREEMERGENCE
[17] = test system: large crabgrass (Digitaria sanguinalis); test: Test C; design: key: 0 was no effect; 100 was complete control; settings: PREEMERGENCE
[18] = test system: redroot pigweed (Amaranthus retroflexus); test: Test C; design: key: 0 was no effect; 100 was complete control; settings: PREEMERGENCE
[19] = test system: velvetleaf (Abutilon theophrasti); test: Test C; design: key: 0 was no effect; 100 was complete control; settings: PREEMERGENCE

Cc1cnc(-n2cnc(C(F)(F)F)n2)nc1C(=O)c1cccc(C(F)(F)F)c1 [Compound 67]
Plant response rating, Spanishneedles ([1]; PREEMERGENCE, Rate 125 g/ha): 50
Plant response rating, Spanishneedles ([1]; PREEMERGENCE, Rate 250 g/ha): 50
Plant response rating, Bermudagrass ([2]; PREEMERGENCE, Rate 32 g/ha): 70
Plant response rating, Bermudagrass ([2]; PREEMERGENCE, Rate 64 g/ha): 90
Plant response rating, Bermudagrass ([2]; PREEMERGENCE, Rate 125 g/ha): 90
Plant response rating, Com. ragweed ([3]; PREEMERGENCE, Rate 32 g/ha): 90
Plant response rating, Com. ragweed ([3]; PREEMERGENCE, Rate 64 g/ha): 95
Plant response rating, Itchgrass ([4]; PREEMERGENCE, Rate 32 g/ha): 40
Plant response rating, Itchgrass ([4]; PREEMERGENCE, Rate 64 g/ha): 40
Plant response rating, Itchgrass ([4]; PREEMERGENCE, Rate 125 g/ha): 65
Plant response rating, Itchgrass ([4]; PREEMERGENCE, Rate 250 g/ha): 80
Plant response rating, Large crabgrass ([5]; PREEMERGENCE, Rate 32 g/ha): 90
Plant response rating, Large crabgrass ([5]; PREEMERGENCE, Rate 64 g/ha): 95
Plant response rating, Large crabgrass ([5]; PREEMERGENCE, Rate 125 g/ha): 98
Plant response rating, Sandbur ([6]; PREEMERGENCE, Rate 32 g/ha): 60
Plant response rating, Sandbur ([6]; PREEMERGENCE, Rate 64 g/ha): 60
Plant response rating, Sandbur ([6]; PREEMERGENCE, Rate 125 g/ha): 65
Plant response rating, Sandbur ([6]; PREEMERGENCE, Rate 250 g/ha): 75
Plant response rating, Com. ragweed ([7]; Rate 125 g/ha): 100
Plant response rating, Com. ragweed ([7]; Rate 250 g/ha): 100
Plant response rating, Dallisgrass ([8]; PREEMERGENCE, Rate 32 g/ha): 40
Plant response rating, Dallisgrass ([8]; PREEMERGENCE, Rate 64 g/ha): 70
Plant response rating, Dallisgrass ([8]; PREEMERGENCE, Rate 125 g/ha): 80
Plant response rating, Dallisgrass ([8]; PREEMERGENCE, Rate 250 g/ha): 100
Plant response rating, Goosegrass ([9]; PREEMERGENCE, Rate 32 g/ha): 80
Plant response rating, Goosegrass ([9]; PREEMERGENCE, Rate 64 g/ha): 90
Plant response rating, Goosegrass ([9]; PREEMERGENCE, Rate 125 g/ha): 100
Plant response rating, Goosegrass ([9]; PREEMERGENCE, Rate 250 g/ha): 100
Plant response rating, Guineagrass ([10]; PREEMERGENCE, Rate 32 g/ha): 80
Plant response rating, Guineagrass ([10]; PREEMERGENCE, Rate 64 g/ha): 100
Plant response rating, Guineagrass ([10]; PREEMERGENCE, Rate 125 g/ha): 100
Plant response rating, Guineagrass ([10]; PREEMERGENCE, Rate 250 g/ha): 100

Cc1cnc(-n2ccc(C(F)(F)F)n2)nc1Cn1ccc(C(F)(F)F)n1 [Compound 52]
Plant response rating, Arrowleaf sida ([11]; Rate 35 g/ha): 100
Plant response rating, Arrowleaf sida ([11]; Rate 70 g/ha): 100
Plant response rating, Arrowleaf sida ([11]; Rate 140 g/ha): 100
Plant response rating, Barnyardgrass ([12]; Rate 35 g/ha): 30
Plant response rating, Barnyardgrass ([12]; Rate 70 g/ha): 40
Plant response rating, Barnyardgrass ([12]; Rate 140 g/ha): 40
Plant response rating, Cocklebur ([13]; Rate 70 g/ha): 0
Plant response rating, Cocklebur ([13]; Rate 140 g/ha): 20
Plant response rating, Common ragweed ([14]; Rate 35 g/ha): 40
Plant response rating, Common ragweed ([14]; Rate 70 g/ha): 60
Plant response rating, Common ragweed ([14]; Rate 140 g/ha): 100
Plant response rating, Fall panicum ([15]; Rate 35 g/ha): 100
Plant response rating, Fall panicum ([15]; Rate 70 g/ha): 100
Plant response rating, Fall panicum ([15]; Rate 140 g/ha): 100
Plant response rating, Giant foxtail ([16]; Rate 35 g/ha): 70
Plant response rating, Giant foxtail ([16]; Rate 70 g/ha): 85
Plant response rating, Giant foxtail ([16]; Rate 140 g/ha): 100
Plant response rating, Large crabgrass ([17]; Rate 35 g/ha): 100
Plant response rating, Large crabgrass ([17]; Rate 70 g/ha): 100
Plant response rating, Large crabgrass ([17]; Rate 140 g/ha): 100
Plant response rating, Redroot pigweed ([18]; Rate 35 g/ha): 100
Plant response rating, Redroot pigweed ([18]; Rate 70 g/ha): 100
Plant response rating, Redroot pigweed ([18]; Rate 140 g/ha): 100
Plant response rating, Velvetleaf ([19]; Rate 35 g/ha): 70
Plant response rating, Velvetleaf ([19]; Rate 70 g/ha): 100
Plant response rating, Velvetleaf ([19]; Rate 140 g/ha): 100
Plant response rating, Spanishneedles ([1]; POSTEMERGENCE, Rate 125 g/ha): 65
Plant response rating, Spanishneedles ([1]; POSTEMERGENCE, Rate 250 g/ha): 60
Plant response rating, Spanishneedles ([1]; PREEMERGENCE, Rate 32 g/ha): 20
Plant response rating, Spanishneedles ([1]; PREEMERGENCE, Rate 64 g/ha): 20
Plant response rating, Spanishneedles ([1]; PREEMERGENCE, Rate 125 g/ha): 35
Plant response rating, Bermudagrass ([2]; POSTEMERGENCE, Rate 125 g/ha): 35
Plant response rating, Bermudagrass ([2]; POSTEMERGENCE, Rate 250 g/ha): 35
Plant response rating, Bermudagrass ([2]; PREEMERGENCE, Rate 32 g/ha): 70
Plant response rating, Bermudagrass ([2]; PREEMERGENCE, Rate 64 g/ha): 90
Plant response rating, Com. ragweed ([3]; POSTEMERGENCE, Rate 125 g/ha): 50
Plant response rating, Com. ragweed ([3]; POSTEMERGENCE, Rate 250 g/ha): 80
Plant response rating, Com. ragweed ([3]; PREEMERGENCE, Rate 32 g/ha): 35
Plant response rating, Com. ragweed ([3]; PREEMERGENCE, Rate 64 g/ha): 80
Plant response rating, Itchgrass ([4]; POSTEMERGENCE, Rate 125 g/ha): 35
Plant response rating, Itchgrass ([4]; POSTEMERGENCE, Rate 250 g/ha): 40
Plant response rating, Itchgrass ([4]; PREEMERGENCE, Rate 32 g/ha): 35
Plant response rating, Itchgrass ([4]; PREEMERGENCE, Rate 64 g/ha): 70
Plant response rating, Itchgrass ([4]; PREEMERGENCE, Rate 125 g/ha): 80
Plant response rating, Large crabgrass ([5]; POSTEMERGENCE, Rate 125 g/ha): 5
Plant response rating, Large crabgrass ([5]; POSTEMERGENCE, Rate 250 g/ha): 80
Plant response rating, Large crabgrass ([5]; PREEMERGENCE, Rate 32 g/ha): 98
Plant response rating, Sandbur ([6]; POSTEMERGENCE, Rate 125 g/ha): 5
Plant response rating, Sandbur ([6]; POSTEMERGENCE, Rate 250 g/ha): 60
Plant response rating, Sandbur ([6]; PREEMERGENCE, Rate 64 g/ha): 10
Plant response rating, Sandbur ([6]; PREEMERGENCE, Rate 125 g/ha): 50
Plant response rating, Com. ragweed ([7]; Rate 125 g/ha): 100
Plant response rating, Dallisgrass ([8]; POSTEMERGENCE, Rate 125 g/ha): 5
Plant response rating, Dallisgrass ([8]; POSTEMERGENCE, Rate 250 g/ha): 75
Plant response rating, Dallisgrass ([8]; PREEMERGENCE, Rate 32 g/ha): 35
Plant response rating, Dallisgrass ([8]; PREEMERGENCE, Rate 64 g/ha): 80
Plant response rating, Dallisgrass ([8]; PREEMERGENCE, Rate 125 g/ha): 90
Plant response rating, Goosegrass ([9]; POSTEMERGENCE, Rate 125 g/ha): 5
Plant response rating, Goosegrass ([9]; POSTEMERGENCE, Rate 250 g/ha): 75
Plant response rating, Goosegrass ([9]; PREEMERGENCE, Rate 32 g/ha): 20
Plant response rating, Goosegrass ([9]; PREEMERGENCE, Rate 64 g/ha): 100
Plant response rating, Goosegrass ([9]; PREEMERGENCE, Rate 125 g/ha): 100
Plant response rating, Guineagrass ([10]; POSTEMERGENCE, Rate 125 g/ha): 80
Plant response rating, Guineagrass ([10]; POSTEMERGENCE, Rate 250 g/ha): 85
Plant response rating, Guineagrass ([10]; PREEMERGENCE, Rate 32 g/ha): 60
Plant response rating, Guineagrass ([10]; PREEMERGENCE, Rate 64 g/ha): 80
Plant response rating, Guineagrass ([10]; PREEMERGENCE, Rate 125 g/ha): 100
